One assay deals with T1, EGFR(L858R/T790M) (Homo sapiens, UniProt P00533, L858R/T790M).
T1 construct: purchased from Carna (GST-a.a. 669-1210)
The assay is described as follows: EGFR biochemical assay (HTRF), IC50 determinations. The procedure, abridged:
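HTRF kinase reaction with biotin-TK peptide at room temperature, quenched with EDTA at 60 min and detected with PT66K/SAXL after 1 h. Without preincubation, enzyme starts the reaction with compound, ATP and peptide present. With preincubation, compound, enzyme and peptide sit at room temperature for a set time before ATP is added.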
(In TR-FRET formats the signal depends on donor and acceptor labels being close together.)

The target in assay [1] is human EGFR WT (NIH/3T3 cells, EGF-induced) (Homo sapiens, UniProt P00533). Nature of the assay: EGFR target modulation in engineered NIH/3T3 cell lines (phospho-EGFR Y1068 AlphaLISA), EGFR WT. In kind it is cell-based. The following applies: engineered NIH/3T3 cells, read-out: NIH3T3 IC50 (μM) EGFR (WT). An outline of the steps:
(§1)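 Engineered NIH/3T3 cells were plated overnight, then exposed to a 12-point 1:3 compound series (from a 10 μM stock) for 3 hours at 37 °C. WT-expressing cells alone were stimulated with 50 ng/ml EGF for 5 minutes before lysis. IC50s came from non-linear fits of AlphaLISA signal.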
For orientation: Alpha assays give light when donor and acceptor beads are brought close together.

The target in assay [2] is human EGFR L858R (NIH/3T3 cells) (Homo sapiens, UniProt P00533, L858R). Nature of the assay: EGFR target modulation in engineered NIH/3T3 cell lines (phospho-EGFR Y1068 AlphaLISA), EGFR L858R. In kind it is cell-based. The following applies: engineered NIH/3T3 cells, read-out: NIH3T3 IC50 (μM) EGFR (L858R). An outline of the steps:
as §1

Assay [3] addresses human EGFR L858R/T790M (NIH/3T3 cells) (Homo sapiens, UniProt P00533, L858R/T790M). Nature of the assay: EGFR target modulation in engineered NIH/3T3 cell lines (phospho-EGFR Y1068 AlphaLISA), EGFR L858R/T790M. In kind it is cell-based. The following applies: engineered NIH/3T3 cells, read-out: NIH3T3 IC50 (μM) EGFR (L858R/T790M). An outline of the steps:
as §1

The next assay concerns the target H1975 (EGFR L858/T790M) (Homo sapiens, UniProt P00533, L858R/T790M). The assay is described as follows: EGFR target modulation in H1975 cell line (phospho-EGFR Y1173 ELISA). In kind it is cell-based. An outline of the steps:
(§2)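 3 h compound exposure of cells in 10% FBS/RPMI, 37 °C; lysis on ice 20 min; lysate captured overnight at 4 °C on anti-EGFR-coated plates; anti-rabbit-HRP, chemiluminescence.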
On the technique in general: An ELISA detects its analyte on a solid surface through an enzyme-linked reagent.

The target in the next assay is H3255 (EGFR L858R) (Homo sapiens, UniProt P00533, L858R). The assay is described as follows: EGFR target modulation in H3255 cell line (phospho-EGFR Y1173 ELISA). In kind it is cell-based. An outline of the steps: as §2
For a further assay, the target named is HEKn (EGFR WT) (Homo sapiens, UniProt P00533). Nature of the assay: EGFR target modulation in HEKn (EGFR-WT) cell line (phospho-EGFR Y1173 ELISA). In kind it is cell-based. The following applies: value outside parentheses. The procedure, abridged:
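Primary neonatal human keratinocytes (EGFR WT) were exposed to serially diluted compounds for 3 h, then lysed on ice. Phospho-EGFR Y1173 was measured by chemiluminescent sandwich ELISA using anti-EGFR capture.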

Where [4] appears, read: EGFR (L858R/T790M) with 90 min pre-incubation, read-out: IC50 (μM) Column B.
[5] abbreviates: EGFR (L858R/T790M) with no pre-incubation, read-out: IC50 (μM) Column A.

The structures appear in SMILES notation. Where two headings read alike, the source gives them in different places.

Sequence of H1975 (EGFR L858/T790M) (P00533 25-1210 T790M/L858R): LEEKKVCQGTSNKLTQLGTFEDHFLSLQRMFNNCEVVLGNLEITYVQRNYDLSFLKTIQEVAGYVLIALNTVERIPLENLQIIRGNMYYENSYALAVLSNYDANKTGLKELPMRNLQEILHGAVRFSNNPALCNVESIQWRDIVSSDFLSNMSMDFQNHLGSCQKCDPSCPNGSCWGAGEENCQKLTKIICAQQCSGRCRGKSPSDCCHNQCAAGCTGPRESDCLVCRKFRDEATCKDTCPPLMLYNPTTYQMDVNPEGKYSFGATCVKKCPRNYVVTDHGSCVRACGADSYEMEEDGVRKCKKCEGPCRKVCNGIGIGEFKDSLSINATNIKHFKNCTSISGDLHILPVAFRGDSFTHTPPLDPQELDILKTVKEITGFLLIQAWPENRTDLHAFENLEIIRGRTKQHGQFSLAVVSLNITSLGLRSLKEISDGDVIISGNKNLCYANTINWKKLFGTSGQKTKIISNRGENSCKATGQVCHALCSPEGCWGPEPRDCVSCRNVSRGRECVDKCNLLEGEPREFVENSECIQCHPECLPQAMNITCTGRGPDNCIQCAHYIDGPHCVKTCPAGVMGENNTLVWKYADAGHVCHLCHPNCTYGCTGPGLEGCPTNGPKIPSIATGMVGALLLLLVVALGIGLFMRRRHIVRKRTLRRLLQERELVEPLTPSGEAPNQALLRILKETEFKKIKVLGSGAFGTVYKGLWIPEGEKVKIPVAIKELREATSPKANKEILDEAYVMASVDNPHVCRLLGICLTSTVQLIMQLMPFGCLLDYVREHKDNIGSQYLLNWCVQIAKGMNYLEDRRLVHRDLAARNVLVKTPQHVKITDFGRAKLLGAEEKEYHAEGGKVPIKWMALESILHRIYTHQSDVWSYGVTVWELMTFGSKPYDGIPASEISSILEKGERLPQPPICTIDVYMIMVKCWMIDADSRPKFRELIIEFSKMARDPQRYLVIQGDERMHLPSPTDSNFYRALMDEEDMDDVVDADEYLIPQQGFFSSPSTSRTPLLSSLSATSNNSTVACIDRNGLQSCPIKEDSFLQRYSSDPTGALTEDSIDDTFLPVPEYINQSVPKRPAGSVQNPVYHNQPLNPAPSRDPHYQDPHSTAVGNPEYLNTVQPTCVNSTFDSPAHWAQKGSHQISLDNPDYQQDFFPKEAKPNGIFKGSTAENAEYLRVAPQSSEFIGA
Sequence of human EGFR L858R/T790M (NIH/3T3 cells) (P00533 25-1210 T790M/L858R): as above
T1 sequence (P00533 669-1210 T790M/L858R): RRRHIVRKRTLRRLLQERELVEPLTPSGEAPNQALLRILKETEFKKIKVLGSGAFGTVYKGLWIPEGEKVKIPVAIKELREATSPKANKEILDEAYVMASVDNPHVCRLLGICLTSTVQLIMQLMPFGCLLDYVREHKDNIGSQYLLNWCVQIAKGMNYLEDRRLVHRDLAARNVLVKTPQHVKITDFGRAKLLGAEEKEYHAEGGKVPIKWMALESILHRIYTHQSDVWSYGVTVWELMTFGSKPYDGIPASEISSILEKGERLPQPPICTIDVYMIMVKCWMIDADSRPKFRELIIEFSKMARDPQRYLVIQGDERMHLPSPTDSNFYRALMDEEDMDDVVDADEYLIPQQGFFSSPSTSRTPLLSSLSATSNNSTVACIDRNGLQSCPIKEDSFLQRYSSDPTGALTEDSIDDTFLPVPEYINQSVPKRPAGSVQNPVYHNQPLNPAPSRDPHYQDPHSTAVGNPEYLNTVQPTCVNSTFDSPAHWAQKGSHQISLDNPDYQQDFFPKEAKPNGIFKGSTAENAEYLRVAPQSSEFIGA
Sequence of human EGFR WT (NIH/3T3 cells, EGF-induced) (P00533 25-1210): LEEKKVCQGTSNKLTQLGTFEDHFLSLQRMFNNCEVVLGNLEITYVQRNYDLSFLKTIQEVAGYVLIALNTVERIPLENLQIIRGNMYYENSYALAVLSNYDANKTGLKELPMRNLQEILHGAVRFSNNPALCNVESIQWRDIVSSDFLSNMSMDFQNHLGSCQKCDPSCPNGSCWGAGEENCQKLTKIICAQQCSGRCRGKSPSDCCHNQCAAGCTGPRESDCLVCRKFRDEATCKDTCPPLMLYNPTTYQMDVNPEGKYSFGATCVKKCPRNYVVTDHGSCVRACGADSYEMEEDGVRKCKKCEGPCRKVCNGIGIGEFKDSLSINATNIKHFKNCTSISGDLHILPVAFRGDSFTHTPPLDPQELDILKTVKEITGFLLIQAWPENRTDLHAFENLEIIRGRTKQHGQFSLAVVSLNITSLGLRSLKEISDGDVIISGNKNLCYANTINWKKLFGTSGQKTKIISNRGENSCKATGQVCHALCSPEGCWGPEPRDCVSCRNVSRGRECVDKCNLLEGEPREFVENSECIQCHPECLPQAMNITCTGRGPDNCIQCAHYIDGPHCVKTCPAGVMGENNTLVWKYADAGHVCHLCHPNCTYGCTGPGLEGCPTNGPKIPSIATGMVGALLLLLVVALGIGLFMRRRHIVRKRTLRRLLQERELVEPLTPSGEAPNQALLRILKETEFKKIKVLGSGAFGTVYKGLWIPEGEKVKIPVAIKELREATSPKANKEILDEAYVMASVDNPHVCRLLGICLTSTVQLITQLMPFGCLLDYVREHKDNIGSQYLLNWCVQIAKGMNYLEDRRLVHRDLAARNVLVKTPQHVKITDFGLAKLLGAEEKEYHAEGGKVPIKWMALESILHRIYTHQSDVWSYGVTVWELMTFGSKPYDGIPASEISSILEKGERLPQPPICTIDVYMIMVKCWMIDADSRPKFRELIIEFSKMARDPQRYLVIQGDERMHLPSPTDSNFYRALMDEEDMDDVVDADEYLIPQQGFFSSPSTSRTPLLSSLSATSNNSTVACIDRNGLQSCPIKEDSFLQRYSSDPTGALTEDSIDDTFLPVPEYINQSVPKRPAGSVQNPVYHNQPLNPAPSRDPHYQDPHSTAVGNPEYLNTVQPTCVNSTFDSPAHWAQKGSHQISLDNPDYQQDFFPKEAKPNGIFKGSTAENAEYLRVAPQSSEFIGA

On to `C=CC(=O)N1CCC[C@@H](n2c(NC(=O)c3ccnc(C)c3)nc3cccc(C)c32)C1` [Example 17-109], for which the IC50 at EGFR(L858R/T790M) (setting [4]) was under 0.001 µM; at EGFR(L858R/T790M) (setting [5]), 0.025 µM; in assay [1] it was 0.88 µM; in assay [2], 0.032 µM; in assay [3], 0.028 µM; against H1975 (EGFR L858/T790M), 14 nM. Also, the IC50 is 43 nM against H3255 (EGFR L858R) and 1680 nM at HEKn (EGFR WT).
For the compound `C=CC(=O)N1CCCC[C@@H](n2c(NC(=O)c3ccnc(C)c3)nc3cccc(Cl)c32)C1` [Example 17-17], the IC50 at EGFR(L858R/T790M) (setting [4]) is under 0.001 µM; on EGFR(L858R/T790M) (setting [5]), 0.004 µM; in assay [1] it was 0.211 µM; in assay [2] it was 0.008 µM; in assay [3], 0.005 µM; against H1975 (EGFR L858/T790M), 3 nM. For the same compound, the IC50 was 8 nM on H3255 (EGFR L858R) and 176 nM on HEKn (EGFR WT).
Take `C=CC(=O)N1CCCC[C@@H](n2c(NC(=O)c3ccnnc3)nc3cccc(C)c32)C1` [Example 17-94]: the IC50 is under 0.001 µM on EGFR(L858R/T790M) (setting [4]); 0.002 µM at EGFR(L858R/T790M) (setting [5]); 0.031 µM in assay [1]; 0.001 µM in assay [2]; under 0.001 µM in assay [3]; 1 nM against H1975 (EGFR L858/T790M). For the same compound, the IC50 was 2 nM against H3255 (EGFR L858R) and 45 nM at HEKn (EGFR WT).
As for `Cc1cncc(C(=O)Nc2nc3cccc(C)c3n2[C@@H]2CCCCN(C(=O)/C=C/CN(C)C)C2)c1` [Example 17-68], the IC50 at EGFR(L858R/T790M) (setting [4]) is under 0.001 µM; at EGFR(L858R/T790M) (setting [5]) it was 0.003 µM; in assay [1], 0.023 µM; in assay [2] it was 0.002 µM; in assay [3], 0.001 µM; against H1975 (EGFR L858/T790M), 2 nM. For the same compound, the results for the IC50 at H3255 (EGFR L858R) and at HEKn (EGFR WT) were 8 nM and 203 nM, respectively.
As to `C=CC(=O)N1CCCC[C@@H](n2c(NC(=O)c3ccnnc3)nc3cccc(OC)c32)C1` [Example 17-84], the IC50 at EGFR(L858R/T790M) (setting [4]) came to 0.003 µM; at EGFR(L858R/T790M) (setting [5]), 0.049 µM; in assay [1], 1.94 µM; in assay [2] it was 0.04 µM; in assay [3], 0.028 µM; against H1975 (EGFR L858/T790M) it was 37 nM. The IC50 came out at 137 nM on H3255 (EGFR L858R) and 1660 nM on HEKn (EGFR WT).
With `C=CC(=O)N1CCC[C@@H](n2c(NC(=O)c3cccc(C(F)(F)F)c3)nc3cc(CN4CCCCC4)ccc32)C1` [Example 17-118], the IC50 on EGFR(L858R/T790M) (setting [4]) was 0.005 µM; on EGFR(L858R/T790M) (setting [5]), 0.68 µM; in assay [1], over 10 µM; in assay [2], 0.156 µM; in assay [3], 0.005 µM; on H1975 (EGFR L858/T790M), 640 nM. Further, the IC50 on H3255 (EGFR L858R) and on HEKn (EGFR WT) was over 10000 nM each time.
Turning to `Cc1cccc2nc(NC(=O)c3ccncc3)n(C3CCCCN(C(=O)/C=C/CN(C)C)C3)c12` (stereo not drawn) [Example 17-35], the IC50 on EGFR(L858R/T790M) (setting [4]) was under 0.001 µM; at EGFR(L858R/T790M) (setting [5]) it was 0.006 µM; in assay [1] it was 0.14 µM; in assay [2] it was 0.005 µM; in assay [3] it was 0.005 µM; against H1975 (EGFR L858/T790M) it was 4 nM. In addition, the IC50 came out at 5 nM against H3255 (EGFR L858R) and 285 nM on HEKn (EGFR WT).
Turning to `C=CC(=O)N1CCC[C@@H](n2c(NC(=O)c3cccc(C(F)(F)F)c3)nc3cc(C(N)=O)ccc32)C1` [Example 19, (R)-1-(1-acryloylpiperidin-3-yl)-2-(3-(trifluoromethyl)benzamido)-1H-benzo[d]imidazole-5-carboxamide], the IC50 at EGFR(L858R/T790M) (setting [4]) is 0.01 µM; at EGFR(L858R/T790M) (setting [5]) it was 0.218 µM; in assay [1] it was over 10 µM; in assay [2] it was 0.226 µM; in assay [3], 0.026 µM; against H1975 (EGFR L858/T790M) it was 168 nM. The IC50 on H3255 (EGFR L858R) is 2020 nM; on HEKn (EGFR WT), over 10000 nM.
As to `C=CC(=O)N1CCCC[C@@H](n2c(NC(=O)c3ccccc3)nc3cccc(CN4CCS(=O)(=O)CC4)c32)C1` [Example 17-132], the IC50 at EGFR(L858R/T790M) (setting [4]) is 0.001 µM; on EGFR(L858R/T790M) (setting [5]) it was 0.041 µM; in assay [1], 2.87 µM; in assay [2], 0.047 µM; in assay [3], 0.012 µM; against H1975 (EGFR L858/T790M), 9 nM. The IC50 against H3255 (EGFR L858R) was found to be 108 nM; on HEKn (EGFR WT), 2850 nM.
As for `Cc1cccc2nc(NC(=O)c3cccc(F)c3F)n(C3CCCCN(C(=O)/C=C/CN(C)C)C3)c12` (stereo not drawn) [Example 17-27], the IC50 at EGFR(L858R/T790M) (setting [4]) turned out to be 0.002 µM; on EGFR(L858R/T790M) (setting [5]), 0.021 µM; in assay [1], 0.67 µM; in assay [2], 0.012 µM; in assay [3], 0.005 µM; on H1975 (EGFR L858/T790M), 12 nM. The IC50 on H3255 (EGFR L858R) came to 88 nM; at HEKn (EGFR WT) it was 1000 nM.
Turning to `COc1cc(C(=O)Nc2nc3cccc(C)c3n2C2CCCCN(C(=O)/C=C/CN(C)C)C2)ccn1` (stereo not drawn) [Example 17-48], the IC50 at EGFR(L858R/T790M) (setting [4]) is under 0.001 µM; at EGFR(L858R/T790M) (setting [5]) it was 0.007 µM; in assay [1], 0.122 µM; in assay [2] it was 0.005 µM; in assay [3], 0.004 µM; against H1975 (EGFR L858/T790M), 10 nM. The IC50 worked out at 7 nM at H3255 (EGFR L858R) and 380 nM on HEKn (EGFR WT).
Regarding `Cc1cc(C(=O)Nc2nc3cccc(Cl)c3n2[C@@H]2CCCCN(C(=O)/C=C/CN3CC[C@@H](F)C3)C2)ccn1` [Example 3-1], the IC50 on EGFR(L858R/T790M) (setting [4]) is under 0.001 µM; at EGFR(L858R/T790M) (setting [5]) it was 0.005 µM; in assay [1], 0.235 µM; in assay [2], 0.003 µM; in assay [3], 0.004 µM; against H1975 (EGFR L858/T790M), 6 nM. Moreover, the values for the IC50 against H3255 (EGFR L858R) and at HEKn (EGFR WT) were 7 nM and 340 nM, respectively.
Take `Cc1cccc2nc(NC(=O)c3cc(F)c(F)c(F)c3)n(C3CCCCN(C(=O)/C=C/CN(C)C)C3)c12` (stereo not drawn) [Example 17-33]: the IC50 is under 0.001 µM on EGFR(L858R/T790M) (setting [4]); 0.008 µM on EGFR(L858R/T790M) (setting [5]); 0.224 µM in assay [1]; 0.002 µM in assay [2]; 0.005 µM in assay [3]; 5 nM on H1975 (EGFR L858/T790M). Further, the IC50 at H3255 (EGFR L858R) was determined as 65 nM; on HEKn (EGFR WT), 259 nM.
Regarding `Cc1ccc(C(=O)Nc2nc3cccc(C)c3n2C2CCCCN(C(=O)/C=C/CN(C)C)C2)cn1` (stereo not drawn) [Example 17-47], the IC50 is under 0.001 µM at EGFR(L858R/T790M) (setting [4]); 0.009 µM at EGFR(L858R/T790M) (setting [5]); 0.052 µM in assay [1]; 0.002 µM in assay [2]; 0.003 µM in assay [3]; 17 nM at H1975 (EGFR L858/T790M). Further, the IC50 on H3255 (EGFR L858R) is 4 nM; on HEKn (EGFR WT), 186 nM.
With `C=CC(=O)N1CCCC[C@@H](n2c(NC(=O)c3ccnnc3)nc3ccc(OC)c(Cl)c32)C1` [Example 9, (R)—N-(1-(1-acryloylazepan-3-yl)-7-chloro-6-methoxy-1H-benzo[d]imidazol-2-yl)pyridazine-4-carboxamide], the IC50 on EGFR(L858R/T790M) (setting [4]) is under 0.001 µM; on EGFR(L858R/T790M) (setting [5]) it was 0.006 µM; in assay [1], 0.101 µM; in assay [2], 0.008 µM; in assay [3] it was 0.002 µM; at H1975 (EGFR L858/T790M), 3 nM. Also, the IC50 at H3255 (EGFR L858R) was determined as 8 nM; at HEKn (EGFR WT), 152 nM.

The record behind these values is patent US9440957B2, “Compounds and compositions for modulating EGFR Activity” (Novartis AG, priority 2012, dated 2016).
